Reference: patent US20210253518A1, “KINASE INHIBITOR” (NISSAN CHEMICAL CORPORATION, priority 2018, published 2021)

Key:
[1] = system: YAP (phospho-S127 and total); experiment: YAP phosphorylation inhibitory action in SKOV3 cells (HTRF, YAP-total kit / YAP phospho-S127 kit); type: cell-based, human; conditions: 10 μM, 1 hr, Non-treatment as 100%
Protocol: Human ovarian cancer cell line SKOV3 (manufactured by DS Pharma Biomedical Co., Ltd) was precultured (single layer culture) in a 15% FBS-containing McCoy's 5a medium (manufactured by Sigma Ltd. Aldrich). The above-mentioned cells in the logarithmic growth phase were washed with PBS, a 0.25% (w/v) trypsin-1 mmol/L ethylenediaminetetraacetic acid (EDTA) solution (manufactured by Fujifilm Wako Pure Chemical Corporation) was added, and adherent cells were detached by incubating at 37° C. for 3 min. The above-mentioned medium was added and the mixture was centrifuged and resuspended in the same medium.
According to the method of patent document (WO 2014/017513), a composition of 10% FBS-containing DMEM medium (Phenol-red free, manufactured by FUJIFILM Wako Pure Chemical Corporation) containing 0.015% (w/v) deacylated gellan gum (KELCOGEL CG-LA, manufactured by SANSHO Co., Ltd.) was prepared using FCeM-series Preparation Kit (manufactured by FUJIFILM Wako Pure Chemical Corporation). Then, various cells prepared above were suspended in the above-mentioned medium composition (3D conditions) added with deacylated gellan gum or a medium without the addition (2D conditions), and seeded on a 50 μL/well (manufactured by Corning Incorporated, 96 well flat bottom plate, #3585, 2D conditions) or 25 μL/well (manufactured by Corning Incorporated, 96 well low adhesion flat bottom plate, #3474) at 100000 cells/well. The plate was allowed to stand at 37° C. in a 5% CO2 incubator, and the compound of the present invention diluted with the medium at 2 or 6 times the final concentration, DMSO, or the medium alone was added to the plate 3 hr after the seeding at 50 μL/well (2D conditions) or 5 μL/well (3D conditions) to make the final concentration of each compound 10 μM. After culture at 37° C. in a 5% CO2 incubator for 1 hr, the supernatant was aspirated, supplemented Lysis buffer (1-fold concentration, manufactured by Cisbio, YAP-total kit or YAP phospho-S127 kit) (50 μL) was added under 2D conditions, and supplemented Lysys buffer (4-fold concentration) (10 μL) was added to the culture supernatant under 3D conditions, and the mixture was stirred by a plate shaker for 30 min. Thereafter, the plate was centrifuged, 16 μL of the supernatant was transferred to a 384-well white plate (Corning, #4512), and each antibody solution (pYAP d2 antibody or Total-YAP d2 antibody, and pYAP Cryptate antibody or Total-YAP Cryptate antibody) included in the kit was added at 4 μL/well in total, and the mixture was allowed to stand at room temperature overnight. As a blank control, pYAP Cryptate antibody or Total-YAP Cryptate antibody alone was added to cells free of stimulation with compound and the mixture was treated in the same manner (Non-treatment). The next day, the wavelengths at 665 nm and 615 nm were measured in the HTRF mode of EnVision (manufactured by PerkinElmer).
The obtained signal was calculated as follows. Ratio=signal (665 nm)/signal (615 nm)×10000, ΔR=Signal(Ratio)−Background fluorescence, and the relative value with respect to ΔR of the compound non-addition group (Non-treatment) as 100% was calculated, and the phosphorylated YAP amount or total YAP amount by each compound was evaluated.

LATS1 = biological target: T1, LATS1 (Homo sapiens, UniProt O95835); experiment: Kinase Assay method (Fluorospark Kinase/ADP Multi-Assay Kit); type: biochemical
T1 construct: purchased Carna Biosciences
T1 sequence (O95835 589-1130 limits assumed): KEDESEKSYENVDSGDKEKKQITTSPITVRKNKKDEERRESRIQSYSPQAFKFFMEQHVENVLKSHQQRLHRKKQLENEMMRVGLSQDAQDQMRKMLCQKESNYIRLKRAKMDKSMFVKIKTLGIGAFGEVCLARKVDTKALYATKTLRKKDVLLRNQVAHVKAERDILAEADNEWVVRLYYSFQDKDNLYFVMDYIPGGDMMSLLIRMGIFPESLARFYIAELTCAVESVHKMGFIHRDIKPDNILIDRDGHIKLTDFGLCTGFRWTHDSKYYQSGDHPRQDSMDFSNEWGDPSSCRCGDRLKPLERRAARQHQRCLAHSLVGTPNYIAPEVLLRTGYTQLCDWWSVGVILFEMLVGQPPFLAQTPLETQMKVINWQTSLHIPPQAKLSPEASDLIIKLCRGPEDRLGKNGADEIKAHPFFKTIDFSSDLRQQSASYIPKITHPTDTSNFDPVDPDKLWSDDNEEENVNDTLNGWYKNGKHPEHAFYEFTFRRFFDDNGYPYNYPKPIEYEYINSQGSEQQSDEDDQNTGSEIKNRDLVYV
Protocol: (§1) For compound k-1:B-1 (racemate), GA-002A, GA-002B, GA-005A and GA-005B, inhibitory activity evaluation (calculation of IC50) was performed on LATS1 and LATS2 (manufactured by Carna Biosciences). The activity was measured using the Kinase Assay method described below. The compounds were added such that the test concentration of k-1:B-1 (racemate), GA-002A, GA-002B, GA-005A and GA-005B was in 8 steps (10 μM, 1 μM, 100 nM, […], 10 nM, 3 nM, 1 nM, 0.3 nM) from the final concentration of 10 μM to 0.3 nM.
(§2) As the analysis method of the data, the mean signal of the control well containing reaction components other than the evaluation compound was set to 0% inhibition, the mean signal without enzyme addition was set to 100% inhibition, and the inhibition rate was calculated from the mean signal of 2 wells of each test substance test. IC50 value was calculated using EXSUS (version 7.1.6, manufactured by CAC EXICARE Corporation).
(§3) 2 μL of a compound of the present invention solution at 2.5-fold concentration, 1 μL of substrate at 5-fold concentration (SGKtide: NH2—CKKRNRRLSVA-COOH, manufactured by SignalChem), ATP (manufactured by Sigma-Aldrich), MgCl2 (manufactured by FUJIFILM Wako Pure Chemical Corporation) solution (final concentration 10 μM, 400 μM or 5 mM), and 2 μL of kinase solution at 2.5-fold concentration (final concentration of LATS1 or LATS2 5 μg/mL), each prepared with assay buffer (20 mM HEPES, 0.01% Triton X-100, 2 mM DTT, pH 7.5), were mixed in the wells of a polypropylene 384-well plate (manufactured by Greiner Bio-One, #784900) and reacted at room temperature for 5 hr. Successively, 5 μL detection solution (Fluorospark (registered trade mark)Kinase/ADP Multi-Assay Kit; manufactured by FUJIFILM Wako Pure Chemical Corporation) was added, and the mixture was reacted at room temperature 30 min. Successively, 5 μL of a reaction quenching liquid (Fluorospark (registered trade mark) Kinase/ADP Multi-Assay Kit; manufactured by FUJIFILM Wako Pure Chemical Corporation) was added to discontinue the reaction. Thereafter, the ADP concentration of the reaction solution was quantified by EnSpire (manufactured by PerkinElmer) to detect the kinase reaction.

LATS2 = biological target: T2, LATS2 (Homo sapiens, UniProt Q9NRM7); experiment: as above; type: biochemical
T2 construct: purchased Carna Biosciences
T2 sequence (Q9NRM7 553-1088 limits assumed): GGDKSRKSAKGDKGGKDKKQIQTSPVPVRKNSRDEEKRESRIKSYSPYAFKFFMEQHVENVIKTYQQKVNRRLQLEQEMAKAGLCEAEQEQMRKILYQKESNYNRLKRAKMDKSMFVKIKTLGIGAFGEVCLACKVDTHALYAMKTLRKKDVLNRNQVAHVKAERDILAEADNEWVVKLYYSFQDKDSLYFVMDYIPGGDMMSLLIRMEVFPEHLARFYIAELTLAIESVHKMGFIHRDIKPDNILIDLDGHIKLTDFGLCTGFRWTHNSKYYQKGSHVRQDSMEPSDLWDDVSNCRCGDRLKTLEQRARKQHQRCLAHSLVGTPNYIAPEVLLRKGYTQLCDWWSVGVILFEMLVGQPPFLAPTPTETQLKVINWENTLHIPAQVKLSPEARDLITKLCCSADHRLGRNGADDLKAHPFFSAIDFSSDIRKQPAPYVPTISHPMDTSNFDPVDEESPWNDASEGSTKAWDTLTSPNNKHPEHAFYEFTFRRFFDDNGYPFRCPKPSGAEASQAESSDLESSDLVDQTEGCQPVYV
Protocol: as §1, §2, §3

[2] = Kinase Assay method, 8 steps 10 μM to 0.3 nM

CC/C(=N\NC(=O)[C@@H](C)Nc1cccc(O)c1)c1ccc(O)c(C)c1O [GA-005A]
phosphorylated YAP (%) ([1]; 2D condition): 10%
total YAP (%) ([1]; 2D condition): 91%
phosphorylated YAP (%) ([1]; 3D condition): 10%
total YAP (%) ([1]; 3D condition): 107%
inhibition at 0.1 µM (LATS1; 100 nM, read-out: LARS1 inhibitory rate (%)): 96%
inhibition at 1 µM (LATS1; 1000 nM, read-out: LARS1 inhibitory rate (%)): 97%
IC50 (LATS1; [2]): 4.79 nM
inhibition at 0.1 µM (LATS2; 100 nM, read-out: LARS2 inhibitory rate (%)): 99%
inhibition at 1 µM (LATS2; 1000 nM, read-out: LARS2 inhibitory rate (%)): 100%
IC50 (LATS2; [2]): 7.39 nM
